This note sets out measurements from ChEMBL document CHEMBL1817578, “2-({6-[(3R)-3-amino-3-methylpiperidine-1-yl]-1,3-dimethyl-2,4-dioxo-1,2,3,4-tetrahydro-5H-pyrrolo[3,2-d]pyrimidine-5-yl}methyl)-4-fluorobenzonitrile (DSR-12727): a potent, orally active dipeptidyl peptidase IV inhibitor without mechanism-based inactivation of CYP3A” (Bioorg Med Chem, 2011).

One experiment concerns the target Cytochrome P450 2D6 (Homo sapiens, UniProt P10635). Kind of experiment: Inhibition of CYP2D6. The experiment is classed as ADME.
Another experiment addresses Dipeptidyl peptidase 4 (Homo sapiens, UniProt P27487). Kind of experiment: Inhibition of DPP4 in human plasma assessed as formation of 7-amino-4-methylcoumarin from glycyl-L-proline 4-methylcoumaryl-7-amide by fluorescence assay.
The target of the next experiment is T1, Cytochrome P450 1A2 (Homo sapiens, UniProt P05177).
T1 sequence (P05177 whole entry): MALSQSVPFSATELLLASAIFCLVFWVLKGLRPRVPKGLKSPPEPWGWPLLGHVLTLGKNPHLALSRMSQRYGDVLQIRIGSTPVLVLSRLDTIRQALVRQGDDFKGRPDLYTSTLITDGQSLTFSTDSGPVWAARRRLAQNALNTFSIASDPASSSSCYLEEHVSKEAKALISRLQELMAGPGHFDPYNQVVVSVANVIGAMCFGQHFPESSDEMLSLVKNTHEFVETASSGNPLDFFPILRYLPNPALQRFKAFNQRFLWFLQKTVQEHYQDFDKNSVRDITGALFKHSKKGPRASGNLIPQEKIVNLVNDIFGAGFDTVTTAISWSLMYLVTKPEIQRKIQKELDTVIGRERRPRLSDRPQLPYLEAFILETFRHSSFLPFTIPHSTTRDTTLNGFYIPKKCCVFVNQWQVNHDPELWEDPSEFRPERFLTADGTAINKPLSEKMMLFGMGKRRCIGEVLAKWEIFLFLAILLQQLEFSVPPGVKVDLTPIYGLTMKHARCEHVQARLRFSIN
Kind of experiment: Inhibition of CYP1A2. The experiment is classed as ADME.

The next experiment addresses Cytochrome P450 3A4 (Homo sapiens, UniProt P08684). Kind of experiment: Inhibition of CYP3A4. The experiment is classed as ADME.

As a reminder, the IC50 is the concentration needed to halve the response being measured.

Where only a bound is given, the exact number is not on record here.

Chain of Dipeptidyl peptidase 4 (P27487 whole entry): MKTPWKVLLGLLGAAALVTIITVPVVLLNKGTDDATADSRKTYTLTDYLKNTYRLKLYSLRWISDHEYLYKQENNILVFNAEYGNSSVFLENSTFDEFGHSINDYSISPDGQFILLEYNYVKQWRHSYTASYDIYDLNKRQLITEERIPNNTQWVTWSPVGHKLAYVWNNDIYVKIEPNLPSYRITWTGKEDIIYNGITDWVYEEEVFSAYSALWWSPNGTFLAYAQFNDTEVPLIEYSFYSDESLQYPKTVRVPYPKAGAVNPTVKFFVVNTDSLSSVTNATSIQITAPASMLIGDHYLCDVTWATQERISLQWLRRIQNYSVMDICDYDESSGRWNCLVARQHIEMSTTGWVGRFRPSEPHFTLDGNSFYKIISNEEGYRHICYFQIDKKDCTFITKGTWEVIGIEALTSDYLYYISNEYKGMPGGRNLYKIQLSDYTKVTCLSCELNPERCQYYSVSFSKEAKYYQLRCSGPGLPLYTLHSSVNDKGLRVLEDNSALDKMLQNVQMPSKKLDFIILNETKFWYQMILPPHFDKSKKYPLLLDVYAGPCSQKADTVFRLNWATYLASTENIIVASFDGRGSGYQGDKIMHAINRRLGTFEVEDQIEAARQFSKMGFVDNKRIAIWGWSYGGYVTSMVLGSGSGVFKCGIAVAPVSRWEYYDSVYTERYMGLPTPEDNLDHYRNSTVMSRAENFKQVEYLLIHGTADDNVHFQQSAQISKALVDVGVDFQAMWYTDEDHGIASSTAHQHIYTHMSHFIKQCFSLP
Chain of Cytochrome P450 2D6 (P10635 whole entry): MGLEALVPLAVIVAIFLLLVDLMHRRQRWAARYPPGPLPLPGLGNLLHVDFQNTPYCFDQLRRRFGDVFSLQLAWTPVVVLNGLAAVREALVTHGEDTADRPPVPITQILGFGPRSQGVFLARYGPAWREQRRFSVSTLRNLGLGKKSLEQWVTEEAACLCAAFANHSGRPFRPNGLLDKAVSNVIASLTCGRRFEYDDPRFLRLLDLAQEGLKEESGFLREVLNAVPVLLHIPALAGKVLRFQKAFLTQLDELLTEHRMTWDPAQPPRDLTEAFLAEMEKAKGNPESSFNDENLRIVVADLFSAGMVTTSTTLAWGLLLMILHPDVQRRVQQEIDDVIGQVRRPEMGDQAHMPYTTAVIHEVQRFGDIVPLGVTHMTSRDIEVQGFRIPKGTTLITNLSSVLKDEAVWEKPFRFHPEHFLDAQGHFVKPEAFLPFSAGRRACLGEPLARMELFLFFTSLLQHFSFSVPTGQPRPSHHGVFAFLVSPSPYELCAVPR
Chain of Cytochrome P450 3A4 (P08684 whole entry): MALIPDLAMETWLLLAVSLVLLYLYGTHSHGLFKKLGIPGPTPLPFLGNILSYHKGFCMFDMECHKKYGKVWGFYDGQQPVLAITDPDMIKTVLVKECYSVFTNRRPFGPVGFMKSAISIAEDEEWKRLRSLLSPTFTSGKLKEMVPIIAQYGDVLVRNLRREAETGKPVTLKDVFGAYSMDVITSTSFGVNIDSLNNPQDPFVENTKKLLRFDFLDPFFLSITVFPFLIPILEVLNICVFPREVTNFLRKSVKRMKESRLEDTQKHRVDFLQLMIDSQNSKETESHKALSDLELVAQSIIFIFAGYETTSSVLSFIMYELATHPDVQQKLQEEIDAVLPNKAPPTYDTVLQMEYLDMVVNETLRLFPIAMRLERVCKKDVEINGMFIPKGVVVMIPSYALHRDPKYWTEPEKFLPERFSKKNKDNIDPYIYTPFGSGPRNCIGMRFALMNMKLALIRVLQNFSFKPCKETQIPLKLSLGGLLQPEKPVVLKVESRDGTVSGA

`Cn1c(=O)c2c(cc(N3CCC[C@@H](N)C3)n2Cc2cc(F)ccc2C#N)n(C)c1=O`: the IC50 is 7500 nM against Cytochrome P450 2D6, 0.34 nM at Dipeptidyl peptidase 4, 14700 nM against Cytochrome P450 1A2 and 1600 nM on Cytochrome P450 3A4.
For `CC[C@]1(N)CCCN(c2cc3c(c(=O)n(C)c(=O)n3C)n2Cc2cc(F)ccc2C#N)C1`, the IC50 at Dipeptidyl peptidase 4 was > 1000 nM.
Turning to `CC[C@@]1(N)CCCN(c2cc3c(c(=O)n(C)c(=O)n3C)n2Cc2cc(F)ccc2C#N)C1`, the IC50 on Dipeptidyl peptidase 4 was 26 nM.
